# Measured values published in PubChem BioAssay (NCI).
#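 At the GI50, growth is halved. TGI is the concentration that stops growth completely.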
# Legend:
# Assay in all cases: DTP human tumour cell line panel, 384-well format
# MDA-MB-468 breast = system: MDA-MB-468 breast
# RXF 393 renal = system: RXF 393 renal
# SK-OV-3 ovarian = system: SK-OV-3 ovarian
# SF-268 CNS = system: SF-268 CNS
# SK-MEL-5 melanoma = system: SK-MEL-5 melanoma
# HT29 colon = system: HT29 colon
# OVCAR-8 ovarian = system: OVCAR-8 ovarian
# SW-620 colon = system: SW-620 colon
# NCI-H522 lung = system: NCI-H522 lung
# A549 NSCLC = system: A549 NSCLC
# IGROV1 ovarian = system: IGROV1 ovarian
# SN12C renal = system: SN12C renal
# HL-60(TB) leukemia = system: HL-60(TB) leukemia
# K-562 leukemia = system: K-562 leukemia
# OVCAR-3 ovarian = system: OVCAR-3 ovarian
# NCI-H226 lung = system: NCI-H226 lung
# MALME-3M melanoma = system: MALME-3M melanoma
# KM12 colon = system: KM12 colon
# HOP-62 NSCLC = system: HOP-62 NSCLC
# PC-3 prostate = system: PC-3 prostate
# COLO 205 colon = system: COLO 205 colon
# HOP-92 NSCLC = system: HOP-92 NSCLC
# U251 glioblastoma = system: U251 glioblastoma
# UO-31 renal = system: UO-31 renal
# CCRF-CEM leukemia = system: CCRF-CEM leukemia
# NCI-H460 NSCLC = system: NCI-H460 NSCLC
# MDA-MB-435 melanoma = system: MDA-MB-435 melanoma
# MOLT-4 leukemia = system: MOLT-4 leukemia
# HCT-15 colon = system: HCT-15 colon
# NCI-H322M lung = system: NCI-H322M lung
# SNB-19 CNS = system: SNB-19 CNS
# NCI-H23 lung = system: NCI-H23 lung
# M14 melanoma = system: M14 melanoma
# MDA-MB-231 breast = system: MDA-MB-231 breast
# BT-549 breast = system: BT-549 breast
# SNB-75 CNS = system: SNB-75 CNS
# OVCAR-5 ovarian = system: OVCAR-5 ovarian
# T-47D breast = system: T-47D breast
# A498 renal = system: A498 renal
# SK-MEL-28 melanoma = system: SK-MEL-28 melanoma
# DU-145 prostate = system: DU-145 prostate
# LOX IMVI melanoma = system: LOX IMVI melanoma
# TK-10 renal = system: TK-10 renal
# HCC-2998 colon = system: HCC-2998 colon
# UACC-62 melanoma = system: UACC-62 melanoma
# RPMI-8226 leukemia = system: RPMI-8226 leukemia
# NCI/ADR-RES ovarian = system: NCI/ADR-RES ovarian
# CAKI-1 renal = system: CAKI-1 renal
# SF-539 CNS = system: SF-539 CNS
# OVCAR-4 ovarian = system: OVCAR-4 ovarian
# HS 578T breast = system: HS 578T breast
# HCT-116 colon = system: HCT-116 colon
# ACHN renal = system: ACHN renal
# MCF7 breast = system: MCF7 breast
# 786-0 renal = system: 786-0 renal
# SF-295 CNS = system: SF-295 CNS
# EKVX NSCLC = system: EKVX NSCLC
# UACC-257 melanoma = system: UACC-257 melanoma
# SR leukemia = system: SR leukemia
smiles,measurement,setting,value
CCOc1ccn(-c2ccc(F)cc2)c(=O)c1C(=O)Nc1ccc(Oc2ccnc(N)c2Cl)c(F)c1,GI50,MDA-MB-468 breast,3.97 µM
same,TGI,MDA-MB-468 breast,10.3 µM
same,GI50,RXF 393 renal,4 µM
same,TGI,RXF 393 renal,18.6 µM
same,GI50,SK-OV-3 ovarian,4.37 µM
same,TGI,SK-OV-3 ovarian,20.9 µM
same,GI50,SF-268 CNS,2.01 µM
same,TGI,SF-268 CNS,8.11 µM
same,GI50,SK-MEL-5 melanoma,2.99 µM
same,TGI,SK-MEL-5 melanoma,12.2 µM
same,GI50,HT29 colon,4.42 µM
same,TGI,HT29 colon,23.3 µM
same,GI50,OVCAR-8 ovarian,14.3 µM
same,TGI,OVCAR-8 ovarian,48.1 µM
same,GI50,SW-620 colon,12 µM
same,TGI,SW-620 colon,28.9 µM
same,GI50,NCI-H522 lung,4.35 µM
same,TGI,NCI-H522 lung,15.7 µM
same,GI50,A549 NSCLC,7.37 µM
same,TGI,A549 NSCLC,26.3 µM
same,GI50,IGROV1 ovarian,6.27 µM
same,TGI,IGROV1 ovarian,40.5 µM
same,GI50,SN12C renal,1.95 µM
same,TGI,SN12C renal,46.2 µM
same,GI50,HL-60(TB) leukemia,5.02 µM
same,TGI,HL-60(TB) leukemia,13.6 µM
same,GI50,K-562 leukemia,1.6 µM
same,TGI,K-562 leukemia,3.62 µM
same,GI50,OVCAR-3 ovarian,5.47 µM
same,TGI,OVCAR-3 ovarian,27.3 µM
same,GI50,NCI-H226 lung,9.81 µM
same,TGI,NCI-H226 lung,> 100 µM
same,GI50,MALME-3M melanoma,4.88 µM
same,TGI,MALME-3M melanoma,20.7 µM
same,GI50,KM12 colon,0.314 µM
same,TGI,KM12 colon,> 100 µM
same,GI50,HOP-62 NSCLC,8.81 µM
same,TGI,HOP-62 NSCLC,98.3 µM
same,GI50,PC-3 prostate,4.15 µM
same,TGI,PC-3 prostate,90.3 µM
same,GI50,COLO 205 colon,2.06 µM
same,TGI,COLO 205 colon,4.32 µM
same,GI50,HOP-92 NSCLC,5.06 µM
same,TGI,HOP-92 NSCLC,25.9 µM
same,GI50,U251 glioblastoma,16.3 µM
same,TGI,U251 glioblastoma,> 100 µM
same,GI50,UO-31 renal,8.63 µM
same,TGI,UO-31 renal,59.3 µM
same,GI50,CCRF-CEM leukemia,1.91 µM
same,TGI,CCRF-CEM leukemia,3.51 µM
same,GI50,NCI-H460 NSCLC,3.35 µM
same,TGI,NCI-H460 NSCLC,12.1 µM
same,GI50,MDA-MB-435 melanoma,6.2 µM
same,TGI,MDA-MB-435 melanoma,39.5 µM
same,GI50,MOLT-4 leukemia,1.44 µM
same,TGI,MOLT-4 leukemia,2.9 µM
same,GI50,HCT-15 colon,4.27 µM
same,TGI,HCT-15 colon,27.7 µM
same,GI50,NCI-H322M lung,29.3 µM
same,TGI,NCI-H322M lung,> 100 µM
same,GI50,SNB-19 CNS,22.4 µM
same,TGI,SNB-19 CNS,> 100 µM
same,GI50,NCI-H23 lung,2.64 µM
same,TGI,NCI-H23 lung,24.6 µM
same,GI50,M14 melanoma,2.95 µM
same,TGI,M14 melanoma,11.1 µM
same,GI50,MDA-MB-231 breast,9.78 µM
same,TGI,MDA-MB-231 breast,49.3 µM
same,GI50,BT-549 breast,8.41 µM
same,TGI,BT-549 breast,27.8 µM
same,GI50,SNB-75 CNS,15.4 µM
same,TGI,SNB-75 CNS,35.1 µM
same,GI50,OVCAR-5 ovarian,19.7 µM
same,TGI,OVCAR-5 ovarian,> 100 µM
same,GI50,T-47D breast,1.67 µM
same,TGI,T-47D breast,4.29 µM
same,GI50,A498 renal,5.04 µM
same,TGI,A498 renal,85.8 µM
same,GI50,SK-MEL-28 melanoma,5.1 µM
same,TGI,SK-MEL-28 melanoma,38.7 µM
same,GI50,DU-145 prostate,7.49 µM
same,TGI,DU-145 prostate,> 100 µM
same,GI50,LOX IMVI melanoma,5.57 µM
same,TGI,LOX IMVI melanoma,18.2 µM
same,GI50,TK-10 renal,16.2 µM
same,TGI,TK-10 renal,95 µM
same,GI50,HCC-2998 colon,24.3 µM
same,TGI,HCC-2998 colon,68.1 µM
same,GI50,UACC-62 melanoma,2.62 µM
same,TGI,UACC-62 melanoma,12.4 µM
same,GI50,RPMI-8226 leukemia,3.52 µM
same,TGI,RPMI-8226 leukemia,> 100 µM
same,GI50,NCI/ADR-RES ovarian,10.1 µM
same,TGI,NCI/ADR-RES ovarian,28.7 µM
same,GI50,CAKI-1 renal,4.4 µM
same,TGI,CAKI-1 renal,23.1 µM
same,GI50,SF-539 CNS,5.67 µM
same,TGI,SF-539 CNS,26.9 µM
same,GI50,OVCAR-4 ovarian,8.05 µM
same,TGI,OVCAR-4 ovarian,> 100 µM
same,GI50,HS 578T breast,5.13 µM
same,TGI,HS 578T breast,21.2 µM
same,GI50,HCT-116 colon,4.85 µM
same,TGI,HCT-116 colon,18.4 µM
same,GI50,ACHN renal,10.8 µM
same,TGI,ACHN renal,> 100 µM
same,GI50,MCF7 breast,11.2 µM
same,TGI,MCF7 breast,> 100 µM
same,GI50,786-0 renal,33.4 µM
same,TGI,786-0 renal,> 100 µM
same,GI50,SF-295 CNS,3.81 µM
same,TGI,SF-295 CNS,57.7 µM
same,GI50,EKVX NSCLC,9.83 µM
same,TGI,EKVX NSCLC,58.6 µM
same,GI50,UACC-257 melanoma,6.47 µM
same,TGI,UACC-257 melanoma,27.5 µM
Cn1cc(-c2cnn3c(N)c(Br)c(C4CCCNC4)nc23)cn1 (configuration not stated),GI50,MDA-MB-468 breast,3.75 µM
same,TGI,MDA-MB-468 breast,24.4 µM
same,GI50,RXF 393 renal,0.0332 µM
same,TGI,RXF 393 renal,25 µM
same,GI50,SK-OV-3 ovarian,0.0621 µM
same,TGI,SK-OV-3 ovarian,23.2 µM
same,GI50,SF-268 CNS,5.36 µM
same,TGI,SF-268 CNS,27.2 µM
same,GI50,SK-MEL-5 melanoma,0.0346 µM
same,TGI,SK-MEL-5 melanoma,1.2 µM
same,GI50,HT29 colon,0.989 µM
same,TGI,HT29 colon,12.9 µM
same,GI50,OVCAR-8 ovarian,0.0382 µM
same,TGI,OVCAR-8 ovarian,21.2 µM
same,GI50,NCI-H522 lung,2.56 µM
same,TGI,NCI-H522 lung,11.4 µM
same,GI50,A549 NSCLC,7.68 µM
same,TGI,A549 NSCLC,28.6 µM
same,GI50,IGROV1 ovarian,0.0563 µM
same,TGI,IGROV1 ovarian,13.2 µM
same,GI50,SN12C renal,0.0371 µM
same,TGI,SN12C renal,3.72 µM
same,GI50,HL-60(TB) leukemia,0.032 µM
same,TGI,HL-60(TB) leukemia,0.129 µM
same,GI50,OVCAR-3 ovarian,0.188 µM
same,TGI,OVCAR-3 ovarian,20.3 µM
same,GI50,NCI-H226 lung,3.29 µM
same,TGI,NCI-H226 lung,18.6 µM
same,GI50,KM12 colon,0.117 µM
same,TGI,KM12 colon,15.8 µM
same,GI50,PC-3 prostate,1.8 µM
same,TGI,PC-3 prostate,14.6 µM
same,GI50,COLO 205 colon,0.922 µM
same,TGI,COLO 205 colon,5.81 µM
same,GI50,HOP-92 NSCLC,0.0263 µM
same,TGI,HOP-92 NSCLC,33.3 µM
same,GI50,U251 glioblastoma,5.36 µM
same,TGI,U251 glioblastoma,20.3 µM
same,GI50,NCI-H460 NSCLC,0.93 µM
same,TGI,NCI-H460 NSCLC,10.9 µM
same,GI50,MOLT-4 leukemia,0.0234 µM
same,TGI,MOLT-4 leukemia,0.053 µM
same,GI50,HCT-15 colon,2.08 µM
same,TGI,HCT-15 colon,19.4 µM
same,GI50,NCI-H322M lung,0.293 µM
same,TGI,NCI-H322M lung,22.1 µM
same,GI50,SNB-19 CNS,0.983 µM
same,TGI,SNB-19 CNS,37.1 µM
same,GI50,NCI-H23 lung,0.027 µM
same,TGI,NCI-H23 lung,21.2 µM
same,GI50,MDA-MB-231 breast,2.9 µM
same,TGI,MDA-MB-231 breast,42.2 µM
same,GI50,BT-549 breast,0.033 µM
same,TGI,BT-549 breast,5.25 µM
same,GI50,SNB-75 CNS,4.99 µM
same,TGI,SNB-75 CNS,25.3 µM
same,GI50,OVCAR-5 ovarian,0.0964 µM
same,TGI,OVCAR-5 ovarian,16.5 µM
same,GI50,T-47D breast,14.6 µM
same,TGI,T-47D breast,37.1 µM
same,GI50,SR leukemia,< 0.01 µM
same,GI50,A498 renal,< 0.01 µM
same,TGI,A498 renal,0.0226 µM
same,GI50,SK-MEL-28 melanoma,11.1 µM
same,TGI,SK-MEL-28 melanoma,26.5 µM
same,GI50,DU-145 prostate,0.227 µM
same,TGI,DU-145 prostate,15.6 µM
same,GI50,LOX IMVI melanoma,1.33 µM
same,TGI,LOX IMVI melanoma,4.22 µM
same,GI50,HCC-2998 colon,< 0.01 µM
same,TGI,HCC-2998 colon,0.0624 µM
same,GI50,UACC-62 melanoma,0.88 µM
same,TGI,UACC-62 melanoma,15.3 µM
same,GI50,RPMI-8226 leukemia,0.0358 µM
same,TGI,RPMI-8226 leukemia,0.643 µM
same,GI50,NCI/ADR-RES ovarian,2.04 µM
same,TGI,NCI/ADR-RES ovarian,> 100 µM
same,GI50,CAKI-1 renal,1.46 µM
same,TGI,CAKI-1 renal,15.2 µM
same,GI50,OVCAR-4 ovarian,< 0.01 µM
same,TGI,OVCAR-4 ovarian,26.6 µM
same,GI50,HS 578T breast,0.0302 µM
same,TGI,HS 578T breast,18.9 µM
same,GI50,HCT-116 colon,2.01 µM
same,TGI,HCT-116 colon,15.6 µM
same,GI50,MCF7 breast,1.36 µM
same,TGI,MCF7 breast,17.9 µM
same,GI50,EKVX NSCLC,3.54 µM
same,TGI,EKVX NSCLC,23.8 µM
same,GI50,UACC-257 melanoma,2.29 µM
same,TGI,UACC-257 melanoma,19.5 µM
